molecular target: T1, PI3Kδ (recombinant GST-tagged PIK3CD co-expressed with PIK3R1, p85α) (Homo sapiens, UniProt O00329); test: PI3Kδ inhibition, modified PIK3CD Adapta TR-FRET kinase assay; type: biochemical; settings: 2 μM ATP, 50 μM PIP2, 1 hour at room temperature, pIC50 = -log(IC50 in M)
T1 construct: The protein is full length and co-expressed with untagged PIK3R1; GST; purchased Invitrogen PV5274
Procedure: The activity of compounds as PI3Kδ inhibitors may be determined by a variety of methods, including in vitro and in vivo methods. The following in vitro assay measures a test compound's ability to inhibit PI3Kδ-mediated phosphorylation of PIP2 and ATP.
Recombinant GST-tagged PIK3CD is purchased from Invitrogen (Part Number: PV5274). The protein is full length and co-expressed with untagged PIK3R1, phosphoinositide-3-kinase regulatory subunit 1 (p85α). The protein is stored at −20° C. in 50 mM TRIS (pH 7.5), 150 mM NaCl, 0.5 mM EDTA, 0.02% Triton® X-100, 2 mM DTT, and 50% glycerol.
A modified PIK3CD Adapta® assay (Invitrogen, Carlsbad, Calif.) is used to measure PI3Kδ inhibition of the example compounds. The assay has two phases. In the first phase, kinase reaction components, which include the enzyme (PIK3CD), substrates (PIP2, ATP), test compound (inhibitor), and assay buffer are added to each well, and the reaction is allowed to incubate for a pre-determined period of time. After reaction, a detection solution composed of a Eu (europium)-labeled anti-ADP antibody, Alexa Fluor® 647-labeled ADP tracer, and EDTA (to stop the kinase reaction) is added to each assay well. In this second phase, ADP formed by the kinase reaction displaces the Alexa Fluor® 647-labeled ADP tracer from the antibody, resulting in a decrease in time-resolved fluorescence resonance energy transfer (TR-FRET) signal. In the presence of the inhibitor, the amount of ADP formed by the kinase reaction is reduced, and the resulting intact antibody-tracer interaction maintains a high TR-FRET signal.
The assay uses black Greiner® 384-well plates (784076). The reaction buffer contains 50 mM Hepes (pH 7.5), 3 mM MgCl2, 1 mM EGTA, 100 mM NaCl, 0.03% CHAPS; 2 mM DTT is added fresh prior to each experiment. Enzyme (4 μL, estimated 1.5 nM in buffer) is first added to the wells of the plate. Next, test compounds (2 μL) from a source plate (5% dilution plate) are introduced into the wells. The final DMSO concentration in each assay well is 1%. The dilution plate contains 5% DMSO in the bottom half of columns 23 and 24, which serve as negative (non-inhibited) controls; the top half contains a known inhibitor concentration (positive control) that gives >98% inhibition of the kinase reaction. Other wells contain test compounds serially diluted across the plate 11 times for a total of 12 data points. The kinase reactions are carried out at room temperature and are initiated by the addition of 4 μL of solution containing 2 μM ATP and 50 μM PIP2. Each reaction is stopped after 1 hour±10 minutes via addition of 10 μL stop solution, which contains a final assay concentration of 3 nM Alexa Fluor® 647-labeled ADP tracer, 2 nM Eu-anti-ADP Antibody, and 10 mM EDTA. After allowing the solutions to equilibrate for 30±10 minutes, a PHERAstar plate reader is used to excite the Eu donor (at 337 nm) and to detect emission from the Alexa Fluor® 647 at 665 nm. This emission signal is referenced or “ratioed” to the emission from Eu at 620 nm. The emission ratio (665 nm/620 nm) from each well is collected and converted to percent conversion using a standard curve for the assay conditions: % conversion=B*(C+A−emission ratio)/(emission ratio−C), where “A” and “C” are the maximum and minimum values of the emission ratio obtained from the standard curve of emission ratio vs. % conversion (ATP-ADP); “B” is the emission ratio corresponding to the % conversion at the EC50 value for the ADP Tracer—Eu anti-ADP antibody complex. The percent inhibition for a given inhibitor concentration is computed from % conversion for the reaction and for the positive and negative controls. Corresponding IC50 values are calculated by non-linear curve fitting of the compound concentrations and values of percent inhibition to the standard IC50 equation and are reported as pIC50, i.e., −log(IC50), where IC50 is molar concentration at 50% inhibition.

T1 sequence (O00329 whole entry): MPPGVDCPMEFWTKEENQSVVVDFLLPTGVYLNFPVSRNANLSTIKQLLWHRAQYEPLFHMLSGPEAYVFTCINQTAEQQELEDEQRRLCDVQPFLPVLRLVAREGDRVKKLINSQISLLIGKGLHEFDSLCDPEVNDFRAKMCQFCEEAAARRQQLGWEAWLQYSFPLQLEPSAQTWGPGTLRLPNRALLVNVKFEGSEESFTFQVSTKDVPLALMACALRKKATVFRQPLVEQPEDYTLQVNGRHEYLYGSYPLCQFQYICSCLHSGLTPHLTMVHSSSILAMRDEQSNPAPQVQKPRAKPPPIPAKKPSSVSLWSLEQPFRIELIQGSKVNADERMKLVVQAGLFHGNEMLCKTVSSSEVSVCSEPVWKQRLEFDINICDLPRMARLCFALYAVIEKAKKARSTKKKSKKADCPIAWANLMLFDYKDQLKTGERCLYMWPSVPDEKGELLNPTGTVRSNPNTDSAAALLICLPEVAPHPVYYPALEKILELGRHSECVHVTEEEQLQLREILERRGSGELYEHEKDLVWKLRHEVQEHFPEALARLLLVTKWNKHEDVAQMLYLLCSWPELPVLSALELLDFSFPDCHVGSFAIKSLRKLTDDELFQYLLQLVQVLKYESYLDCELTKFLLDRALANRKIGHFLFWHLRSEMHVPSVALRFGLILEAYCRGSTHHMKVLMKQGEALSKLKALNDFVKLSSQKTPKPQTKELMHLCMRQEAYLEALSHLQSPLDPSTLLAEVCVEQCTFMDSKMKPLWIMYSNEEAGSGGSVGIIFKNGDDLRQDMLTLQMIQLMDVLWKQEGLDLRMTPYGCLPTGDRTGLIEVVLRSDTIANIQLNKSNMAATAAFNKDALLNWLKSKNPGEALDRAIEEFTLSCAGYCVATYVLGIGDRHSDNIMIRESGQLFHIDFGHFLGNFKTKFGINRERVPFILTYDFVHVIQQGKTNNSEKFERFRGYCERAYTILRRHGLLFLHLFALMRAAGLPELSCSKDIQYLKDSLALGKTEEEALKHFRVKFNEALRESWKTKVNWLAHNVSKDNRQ
T1 sequence (P27986 whole entry partner): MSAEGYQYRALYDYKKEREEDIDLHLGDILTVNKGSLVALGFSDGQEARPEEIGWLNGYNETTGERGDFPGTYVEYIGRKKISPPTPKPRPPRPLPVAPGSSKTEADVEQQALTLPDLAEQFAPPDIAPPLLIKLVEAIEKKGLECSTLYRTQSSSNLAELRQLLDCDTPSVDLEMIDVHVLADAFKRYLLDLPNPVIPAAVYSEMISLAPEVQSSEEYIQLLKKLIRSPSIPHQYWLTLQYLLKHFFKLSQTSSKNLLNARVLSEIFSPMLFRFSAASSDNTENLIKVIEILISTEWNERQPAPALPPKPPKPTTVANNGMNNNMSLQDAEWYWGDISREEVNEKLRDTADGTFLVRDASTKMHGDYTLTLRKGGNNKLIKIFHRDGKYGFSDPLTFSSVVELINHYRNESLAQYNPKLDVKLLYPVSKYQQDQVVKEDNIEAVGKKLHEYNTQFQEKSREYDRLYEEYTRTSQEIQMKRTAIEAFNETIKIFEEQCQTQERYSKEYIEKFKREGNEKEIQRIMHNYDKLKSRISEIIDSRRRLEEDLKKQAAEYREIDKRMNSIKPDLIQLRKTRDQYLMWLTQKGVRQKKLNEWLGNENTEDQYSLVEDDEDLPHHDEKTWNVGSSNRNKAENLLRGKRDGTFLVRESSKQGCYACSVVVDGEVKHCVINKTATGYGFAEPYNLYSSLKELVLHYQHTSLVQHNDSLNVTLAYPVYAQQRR

Row | Compound | IC50 [nM]
1 | Cc1nc(N)nc(N[C@@H](C)c2nc3ccn(C)c3cc2C2CCOCC2)c1C#N [Example 25, (S)-2-Amino-4-methyl-6-((1-(1-methyl-6-(tetrahydro-2H-pyran-4-yl)-1H-pyrrolo[3,2-b]pyridin-5-yl)ethyl)amino)pyrimidine-5-carbonitrile] | < 1.26
2 | C[C@H](Nc1nc(N)nc2[nH]cnc12)c1nc2ccn(C)c2cc1-c1ccnn1C(F)F [Example 37, (S)-N^6-(1-(6-(1-(Difluoromethyl)-1H-pyrazol-5-yl)-1-methyl-1H-pyrrolo[3,2-b]pyridin-5-yl)ethyl)-9H-purine-2,6-diamine] | 10
3 | C[C@@H](Nc1nc(N)nc(N)c1C#N)c1nc2ccn(C)c2cc1N1CCC(C)(O)CC1 [Example 22, (R)-2,4-Diamino-6-((1-(6-(4-hydroxy-4-methylpiperidin-1-yl)-1-methyl-1H-pyrrolo[3,2-b]pyridin-5-yl)ethyl)amino)pyrimidine-5-carbonitrile] | 2000
4 | Cc1nc(N)c(C#N)c(NC(C)c2nc3ccn(C)c3cc2N2CCOCC2)n1 (stereo not shown) [Example 6, 4-Amino-2-methyl-6-((1-(1-methyl-6-morpholino-1H-pyrrolo[3,2-b]pyridin-5-yl)ethyl)amino)pyrimidine-5-carbonitrile] | 63.1
5 | C[C@H](Nc1nc(N)nc(N)c1Cl)c1nc2ccn(C)c2cc1-c1ccnn1C [Example 33, (S)-5-Chloro-N^4-(1-(1-methyl-6-(1-methyl-1H-pyrazol-5-yl)-1H-pyrrolo[3,2-b]pyridin-5-yl)ethyl)pyrimidine-2,4,6-triamine] | 31.6
6 | C[C@H](Nc1nc(N)nc(N)c1Cl)c1nc2ccn(C)c2cc1N1CCOCC1 [Example 28, (S)-5-Chloro-N^4-(1-(1-methyl-6-morpholino-1H-pyrrolo[3,2-b]pyridin-5-yl)ethyl)pyrimidine-2,4,6-triamine] | 126
7 | CC(Nc1nc(N)nc(N)c1Cl)c1nc2ccn(C)c2cc1N1CC(O)C1 (stereo not shown) [Example 40, 1-(5-(1-((2,6-Diamino-5-chloropyrimidin-4-yl)amino)ethyl)-1-methyl-1H-pyrrolo[3,2-b]pyridin-6-yl)azetidin-3-ol] | 79.4
8 | C[C@H](Nc1nc(N)nc2[nH]cnc12)c1nc2ccn(C)c2cc1-c1ccccn1 [Example 34, (S)—N^6-(1-(1-Methyl-6-(pyridin-2-yl)-1H-pyrrolo[3,2-b]pyridin-5-yl)ethyl)-9H-purine-2,6-diamine] | 5.01
9 | Cc1nc(N)nc(N[C@@H](C)c2nc3ccn(C)c3cc2N2CCOCC2)c1C#N [Example 9, (S)-2-Amino-4-methyl-6-((1-(1-methyl-6-morpholino-1H-pyrrolo[3,2-b]pyridin-5-yl)ethyl)amino)pyrimidine-5-carbonitrile] | 0.794

Now from value to compound:

Row | IC50 [nM] | Compound
10 | 7.94 | Cc1n[nH]c(C)c1-c1cc2c(ccn2C)nc1[C@H](C)Nc1nc(N)nc(N)c1C#N [Example 14, 2,4-Diamino-6-(((1S)-1-(6-(3,5-dimethyl-1H-pyrazol-4-yl)-1-methyl-1H-pyrrolo[3,2-b]pyridin-5-yl)ethyl)amino)pyrimidine-5-carbonitrile]
11 | < 1.58 | COC1CN(c2cc3c(ccn3C)nc2[C@H](C)Nc2nc(N)nc(N)c2C#N)C1 [Example 41, (S)-2,4-Diamino-6-((1-(6-(3-methoxyazetidin-1-yl)-1-methyl-1H-pyrrolo[3,2-b]pyridin-5-yl)ethyl)amino)pyrimidine-5-carbonitrile]
12 | 1260 | C[C@H](Nc1nc(O)nc(N)c1C#N)c1nc2ccn(C)c2cc1-c1ccnn1C [Example 11, (S)-4-Amino-2-hydroxy-6-((1-(1-methyl-6-(1-methyl-1H-pyrazol-5-yl)-1H-pyrrolo[3,2-b]pyridin-5-yl)ethyl)amino)pyrimidine-5-carbonitrile]
13 | 1.58 | Cc1nc(N)nc(N[C@@H](C)c2nc3ccn(C)c3cc2-c2ccnn2C)c1C#N [Example 3, (S)-2-Amino-4-methyl-6-((1-(1-methyl-6-(1-methyl-1H-pyrazol-5-yl)-1H-pyrrolo[3,2-b]pyridin-5-yl)ethyl)amino)pyrimidine-5-carbonitrile]
14 | < 1 | C[C@H](Nc1nc(N)nc(N)c1C#N)c1nc2ccn(C)c2cc1-c1ccnc(O)c1 [Example 15, (S)-2,4-Diamino-6-((1-(6-(2-hydroxypyridin-4-yl)-1-methyl-1H-pyrrolo[3,2-b]pyridin-5-yl)ethyl)amino)pyrimidine-5-carbonitrile]
15 | 5.01 | Cc1n[nH]cc1-c1cc2c(ccn2C)nc1[C@H](C)Nc1nc(N)nc(C)c1C#N [Example 19, (S)-2-Amino-4-methyl-6-((1-(1-methyl-6-(3-methyl-1H-pyrazol-4-yl)-1H-pyrrolo[3,2-b]pyridin-5-yl)ethyl)amino)pyrimidine-5-carbonitrile]
16 | 1000 | C[C@@H](Nc1nc(N)nc(N)c1C#N)c1nc2ccn(C)c2cc1N1CC(F)(F)C1 [Example 43, (R)-2,4-Diamino-6-((1-(6-(3,3-difluoroazetidin-1-yl)-1-methyl-1H-pyrrolo[3,2-b]pyridin-5-yl)ethyl)amino)pyrimidine-5-carbonitrile]
17 | < 1 | C[C@H](Nc1nc(N)nc(N)c1C#N)c1nc2ccn(C)c2cc1-c1cscn1 [Example 17, (S)-2,4-Diamino-6-((1-(1-methyl-6-(thiazol-4-yl)-1H-pyrrolo[3,2-b]pyridin-5-yl)ethyl)amino)pyrimidine-5-carbonitrile]
18 | 15.8 | C[C@H](Nc1nc(N)nc(N)c1C#N)c1nc2ccn(C)c2cc1N1CC2(COC2)C1 [Example 47, (S)-2,4-Diamino-6-((1-(1-methyl-6-(2-oxa-6-azaspiro[3.3]heptan-6-yl)-1H-pyrrolo[3,2-b]pyridin-5-yl)ethyl)amino)pyrimidine-5-carbonitrile]
19 | < 1.26 | C[C@H](Nc1nc(N)nc(N)c1C#N)c1nc2ccn(C)c2cc1N1CCOCC1 [Example 29, (S)-2,4-Diamino-6-((1-(1-methyl-6-morpholino-1H-pyrrolo[3,2-b]pyridin-5-yl)ethyl)amino)pyrimidine-5-carbonitrile]
20 | 2.51 | C[C@H](Nc1nc(N)nc(N)c1C#N)c1nc2ccn(C)c2cc1-c1ccnn1C1CC1 [Example 35, (S)-2,4-Diamino-6-((1-(6-(1-cyclopropyl-1H-pyrazol-5-yl)-1-methyl-1H-pyrrolo[3,2-b]pyridin-5-yl)ethyl)amino)pyrimidine-5-carbonitrile]
21 | < 1 | Cc1noc(C)c1-c1cc2c(ccn2C)nc1[C@H](C)Nc1nc(N)nc(N)c1C#N [Example 30, 2,4-Diamino-6-(((1S)-1-(6-(3,5-dimethylisoxazol-4-yl)-1-methyl-1H-pyrrolo[3,2-b]pyridin-5-yl)ethyl)amino)pyrimidine-5-carbonitrile]
22 | 3.98 | Cc1nc(N)nc(N[C@@H](C)c2nc3ccn(C)c3cc2-c2c(C)noc2C)c1C#N [Example 31, 2-Amino-4-(((1S)-1-(6-(3,5-dimethylisoxazol-4-yl)-1-methyl-1H-pyrrolo[3,2-b]pyridin-5-yl)ethyl)amino)-6-methylpyrimidine-5-carbonitrile]
